Measurements published in PubChem BioAssay (NCI).
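Tested at 5 concentrations; 48 h exposure; 96-well plates; endpoints linearly interpolated, else capped at highest concentration. GI50 marks 50% less growth. The concentration for full growth arrest is given as TGI.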

Tests used:
Assay in all cases: NCI anticancer screen, dose series, 48 h
M19-MEL melanoma = tested on: M19-MEL melanoma
KM20L2 colon = tested on: KM20L2 colon
SW-620 colon = tested on: SW-620 colon
HCT-116 colon = tested on: HCT-116 colon
SF-268 CNS = tested on: SF-268 CNS
RPMI-8226 leukemia = tested on: RPMI-8226 leukemia
OVCAR-8 ovarian = tested on: OVCAR-8 ovarian
U251 CNS = tested on: U251 CNS
EKVX NSCLC = tested on: EKVX NSCLC
A549 NSCLC = tested on: A549 NSCLC
NCI-H226 lung = tested on: NCI-H226 lung
IGROV1 ovarian = tested on: IGROV1 ovarian
SF-539 CNS = tested on: SF-539 CNS
HT29 colon = tested on: HT29 colon
HCC-2998 colon = tested on: HCC-2998 colon
SK-OV-3 ovarian = tested on: SK-OV-3 ovarian
K-562 leukemia = tested on: K-562 leukemia
OVCAR-3 ovarian = tested on: OVCAR-3 ovarian
COLO 205 colon = tested on: COLO 205 colon
CAKI-1 renal = tested on: CAKI-1 renal
KM12 colon = tested on: KM12 colon
DLD-1 colon = tested on: DLD-1 colon
OVCAR-4 ovarian = tested on: OVCAR-4 ovarian
SN12C renal = tested on: SN12C renal
LXFL 529 NSCLC = tested on: LXFL 529 NSCLC
SK-MEL-5 melanoma = tested on: SK-MEL-5 melanoma
SNB-19 CNS = tested on: SNB-19 CNS
M14 melanoma = tested on: M14 melanoma
NCI-H23 lung = tested on: NCI-H23 lung
A498 renal = tested on: A498 renal
UO-31 renal = tested on: UO-31 renal
LOX IMVI melanoma = tested on: LOX IMVI melanoma
HOP-92 NSCLC = tested on: HOP-92 NSCLC
NCI-H460 lung = tested on: NCI-H460 lung
ACHN renal = tested on: ACHN renal
MOLT-4 leukemia = tested on: MOLT-4 leukemia
MALME-3M melanoma = tested on: MALME-3M melanoma
CCRF-CEM leukemia = tested on: CCRF-CEM leukemia
786-0 renal = tested on: 786-0 renal
NCI-H522 lung = tested on: NCI-H522 lung
HOP-62 NSCLC = tested on: HOP-62 NSCLC
SK-MEL-28 melanoma = tested on: SK-MEL-28 melanoma
OVCAR-5 ovarian = tested on: OVCAR-5 ovarian
HCT-15 colon = tested on: HCT-15 colon
RXF 393 renal = tested on: RXF 393 renal
SF-295 CNS = tested on: SF-295 CNS
SK-MEL-2 melanoma = tested on: SK-MEL-2 melanoma
TK-10 renal = tested on: TK-10 renal
HL-60(TB) leukemia = tested on: HL-60(TB) leukemia
UACC-62 melanoma = tested on: UACC-62 melanoma
UACC-257 melanoma = tested on: UACC-257 melanoma

CC(=O)[CH-]C(=O)c1ccccc1.CC(=O)[CH-]C(=O)c1ccccc1.CCN(CC)CC[O-].CCN(CC)CC[O-].Cl.[Hf+4] was tested. Which GI50 (M19-MEL melanoma) did it give?
Its GI50 is > 100 µM.

And the TGI (M19-MEL melanoma)?
Its TGI is > 100 µM.

And the GI50 (KM20L2 colon)?
The GI50 was > 100 µM.

What about the TGI (KM20L2 colon) of the same compound?
The TGI was > 100 µM.

And the GI50 (SW-620 colon)?
Its GI50 is > 100 µM.

And the TGI (SW-620 colon)?
The TGI was > 100 µM.

What about the GI50 (HCT-116 colon) of the same compound?
Its GI50 is > 100 µM.

What about the TGI (HCT-116 colon) of the same compound?
Its TGI is > 100 µM.

What about the GI50 (SF-268 CNS) of the same compound?
Its GI50 is > 100 µM.

What about the TGI (SF-268 CNS) of the same compound?
The TGI was > 100 µM.

What about the GI50 (RPMI-8226 leukemia) of the same compound?
The GI50 was > 100 µM.

What about the TGI (RPMI-8226 leukemia) of the same compound?
The TGI was > 100 µM.

And the GI50 (OVCAR-8 ovarian)?
Its GI50 is > 100 µM.

And the TGI (OVCAR-8 ovarian)?
Its TGI is > 100 µM.

What about the GI50 (U251 CNS) of the same compound?
The GI50 was > 100 µM.

What about the TGI (U251 CNS) of the same compound?
The TGI was > 100 µM.

What about the GI50 (EKVX NSCLC) of the same compound?
The GI50 was 93.8 µM.

And the TGI (EKVX NSCLC)?
Its TGI is > 100 µM.

What about the GI50 (A549 NSCLC) of the same compound?
Its GI50 is > 100 µM.

And the TGI (A549 NSCLC)?
Its TGI is > 100 µM.

And the GI50 (NCI-H226 lung)?
Its GI50 is 66.1 µM.

What about the TGI (NCI-H226 lung) of the same compound?
Its TGI is > 100 µM.

What about the GI50 (IGROV1 ovarian) of the same compound?
The GI50 was > 100 µM.

And the TGI (IGROV1 ovarian)?
Its TGI is > 100 µM.

What about the GI50 (SF-539 CNS) of the same compound?
The GI50 was > 100 µM.

And the TGI (SF-539 CNS)?
Its TGI is > 100 µM.

What about the GI50 (HT29 colon) of the same compound?
Its GI50 is > 100 µM.

What about the TGI (HT29 colon) of the same compound?
The TGI was > 100 µM.

What about the GI50 (HCC-2998 colon) of the same compound?
The GI50 was > 100 µM.

And the TGI (HCC-2998 colon)?
Its TGI is > 100 µM.

What about the GI50 (SK-OV-3 ovarian) of the same compound?
Its GI50 is > 100 µM.

What about the TGI (SK-OV-3 ovarian) of the same compound?
Its TGI is > 100 µM.

What about the GI50 (K-562 leukemia) of the same compound?
The GI50 was > 100 µM.

And the TGI (K-562 leukemia)?
Its TGI is > 100 µM.

What about the GI50 (OVCAR-3 ovarian) of the same compound?
Its GI50 is > 100 µM.

What about the TGI (OVCAR-3 ovarian) of the same compound?
Its TGI is > 100 µM.

And the GI50 (COLO 205 colon)?
The GI50 was > 100 µM.

What about the TGI (COLO 205 colon) of the same compound?
The TGI was > 100 µM.

And the GI50 (CAKI-1 renal)?
Its GI50 is > 100 µM.

What about the TGI (CAKI-1 renal) of the same compound?
Its TGI is > 100 µM.

What about the GI50 (KM12 colon) of the same compound?
Its GI50 is > 100 µM.

And the TGI (KM12 colon)?
The TGI was > 100 µM.

What about the GI50 (DLD-1 colon) of the same compound?
The GI50 was > 100 µM.

What about the TGI (DLD-1 colon) of the same compound?
The TGI was > 100 µM.

And the GI50 (OVCAR-4 ovarian)?
The GI50 was > 100 µM.

What about the TGI (OVCAR-4 ovarian) of the same compound?
The TGI was > 100 µM.

And the GI50 (SN12C renal)?
The GI50 was > 100 µM.

And the TGI (SN12C renal)?
The TGI was > 100 µM.

And the GI50 (LXFL 529 NSCLC)?
Its GI50 is > 100 µM.

And the TGI (LXFL 529 NSCLC)?
Its TGI is > 100 µM.

What about the GI50 (SK-MEL-5 melanoma) of the same compound?
The GI50 was > 100 µM.

What about the TGI (SK-MEL-5 melanoma) of the same compound?
Its TGI is > 100 µM.

What about the GI50 (SNB-19 CNS) of the same compound?
The GI50 was > 100 µM.

And the TGI (SNB-19 CNS)?
Its TGI is > 100 µM.

And the GI50 (M14 melanoma)?
Its GI50 is 92 µM.

What about the TGI (M14 melanoma) of the same compound?
The TGI was > 100 µM.

And the GI50 (NCI-H23 lung)?
The GI50 was 19.7 µM.

What about the TGI (NCI-H23 lung) of the same compound?
The TGI was > 100 µM.

And the GI50 (A498 renal)?
Its GI50 is 32.2 µM.

What about the TGI (A498 renal) of the same compound?
Its TGI is > 100 µM.

And the GI50 (UO-31 renal)?
The GI50 was > 100 µM.

And the TGI (UO-31 renal)?
The TGI was > 100 µM.

And the GI50 (LOX IMVI melanoma)?
The GI50 was 72.9 µM.

And the TGI (LOX IMVI melanoma)?
Its TGI is > 100 µM.

What about the GI50 (HOP-92 NSCLC) of the same compound?
Its GI50 is 58.9 µM.

And the TGI (HOP-92 NSCLC)?
The TGI was > 100 µM.

What about the GI50 (NCI-H460 lung) of the same compound?
The GI50 was 36.4 µM.

What about the TGI (NCI-H460 lung) of the same compound?
The TGI was > 100 µM.

And the GI50 (ACHN renal)?
The GI50 was 44.6 µM.

What about the TGI (ACHN renal) of the same compound?
Its TGI is > 100 µM.

What about the GI50 (MOLT-4 leukemia) of the same compound?
The GI50 was 65 µM.

And the TGI (MOLT-4 leukemia)?
The TGI was > 100 µM.

What about the GI50 (MALME-3M melanoma) of the same compound?
Its GI50 is > 100 µM.

What about the TGI (MALME-3M melanoma) of the same compound?
Its TGI is > 100 µM.

What about the GI50 (CCRF-CEM leukemia) of the same compound?
Its GI50 is 81.6 µM.

And the TGI (CCRF-CEM leukemia)?
Its TGI is > 100 µM.

What about the GI50 (786-0 renal) of the same compound?
Its GI50 is 88.8 µM.

And the TGI (786-0 renal)?
The TGI was > 100 µM.

What about the GI50 (NCI-H522 lung) of the same compound?
The GI50 was 52.5 µM.

What about the TGI (NCI-H522 lung) of the same compound?
Its TGI is > 100 µM.

And the GI50 (HOP-62 NSCLC)?
Its GI50 is > 100 µM.

And the TGI (HOP-62 NSCLC)?
The TGI was > 100 µM.

And the GI50 (SK-MEL-28 melanoma)?
The GI50 was > 100 µM.

And the TGI (SK-MEL-28 melanoma)?
The TGI was > 100 µM.

What about the GI50 (OVCAR-5 ovarian) of the same compound?
The GI50 was > 100 µM.

What about the TGI (OVCAR-5 ovarian) of the same compound?
The TGI was > 100 µM.

What about the GI50 (HCT-15 colon) of the same compound?
The GI50 was > 100 µM.

What about the TGI (HCT-15 colon) of the same compound?
Its TGI is > 100 µM.

And the GI50 (RXF 393 renal)?
Its GI50 is 29.7 µM.

And the TGI (RXF 393 renal)?
Its TGI is > 100 µM.

What about the GI50 (SF-295 CNS) of the same compound?
The GI50 was 73.2 µM.

And the TGI (SF-295 CNS)?
The TGI was > 100 µM.

And the GI50 (SK-MEL-2 melanoma)?
Its GI50 is > 100 µM.

What about the TGI (SK-MEL-2 melanoma) of the same compound?
Its TGI is > 100 µM.

What about the GI50 (TK-10 renal) of the same compound?
The GI50 was > 100 µM.

And the TGI (TK-10 renal)?
Its TGI is > 100 µM.

And the GI50 (HL-60(TB) leukemia)?
Its GI50 is > 100 µM.

What about the TGI (HL-60(TB) leukemia) of the same compound?
Its TGI is > 100 µM.

What about the GI50 (UACC-62 melanoma) of the same compound?
The GI50 was > 100 µM.

What about the TGI (UACC-62 melanoma) of the same compound?
The TGI was > 100 µM.

What about the GI50 (UACC-257 melanoma) of the same compound?
The GI50 was > 100 µM.

What about the TGI (UACC-257 melanoma) of the same compound?
The TGI was > 100 µM.
